Results reported in US8324245B2, “Quinoline derivative and quinazoline derivative inhibiting self-phosphorylation of hepatocytus proliferator receptor, and medicinal composition containing the same” (Kyowa Hakko Kirin Co., Ltd., priority 2001, dated 2012).

These compounds were tested against T1, met (HGF receptor) in human gastric cancer cells MKN45 (Homo sapiens, UniProt P08581) (assay: Inhibitory activity against met-autophosphorylation using ELISA method (2), MKN45 cells, HGF-independent).
T1 construct: endogenous in cells; host or cells: MKN45 human gastric cancer cells
Assay type: cell-based
How it was run: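 MKN45 cells, 3×10^4 per well in RPMI with 0.1% FCS overnight, were exposed to compound in DMSO for 1 h at 37 °C without HGF. Lysates were captured on anti-phosphotyrosine (PY20) plates, Met detected with anti-Met and peroxidase secondary antibody, absorbance at 450 nm.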

T1 sequence (P08581 25-1390): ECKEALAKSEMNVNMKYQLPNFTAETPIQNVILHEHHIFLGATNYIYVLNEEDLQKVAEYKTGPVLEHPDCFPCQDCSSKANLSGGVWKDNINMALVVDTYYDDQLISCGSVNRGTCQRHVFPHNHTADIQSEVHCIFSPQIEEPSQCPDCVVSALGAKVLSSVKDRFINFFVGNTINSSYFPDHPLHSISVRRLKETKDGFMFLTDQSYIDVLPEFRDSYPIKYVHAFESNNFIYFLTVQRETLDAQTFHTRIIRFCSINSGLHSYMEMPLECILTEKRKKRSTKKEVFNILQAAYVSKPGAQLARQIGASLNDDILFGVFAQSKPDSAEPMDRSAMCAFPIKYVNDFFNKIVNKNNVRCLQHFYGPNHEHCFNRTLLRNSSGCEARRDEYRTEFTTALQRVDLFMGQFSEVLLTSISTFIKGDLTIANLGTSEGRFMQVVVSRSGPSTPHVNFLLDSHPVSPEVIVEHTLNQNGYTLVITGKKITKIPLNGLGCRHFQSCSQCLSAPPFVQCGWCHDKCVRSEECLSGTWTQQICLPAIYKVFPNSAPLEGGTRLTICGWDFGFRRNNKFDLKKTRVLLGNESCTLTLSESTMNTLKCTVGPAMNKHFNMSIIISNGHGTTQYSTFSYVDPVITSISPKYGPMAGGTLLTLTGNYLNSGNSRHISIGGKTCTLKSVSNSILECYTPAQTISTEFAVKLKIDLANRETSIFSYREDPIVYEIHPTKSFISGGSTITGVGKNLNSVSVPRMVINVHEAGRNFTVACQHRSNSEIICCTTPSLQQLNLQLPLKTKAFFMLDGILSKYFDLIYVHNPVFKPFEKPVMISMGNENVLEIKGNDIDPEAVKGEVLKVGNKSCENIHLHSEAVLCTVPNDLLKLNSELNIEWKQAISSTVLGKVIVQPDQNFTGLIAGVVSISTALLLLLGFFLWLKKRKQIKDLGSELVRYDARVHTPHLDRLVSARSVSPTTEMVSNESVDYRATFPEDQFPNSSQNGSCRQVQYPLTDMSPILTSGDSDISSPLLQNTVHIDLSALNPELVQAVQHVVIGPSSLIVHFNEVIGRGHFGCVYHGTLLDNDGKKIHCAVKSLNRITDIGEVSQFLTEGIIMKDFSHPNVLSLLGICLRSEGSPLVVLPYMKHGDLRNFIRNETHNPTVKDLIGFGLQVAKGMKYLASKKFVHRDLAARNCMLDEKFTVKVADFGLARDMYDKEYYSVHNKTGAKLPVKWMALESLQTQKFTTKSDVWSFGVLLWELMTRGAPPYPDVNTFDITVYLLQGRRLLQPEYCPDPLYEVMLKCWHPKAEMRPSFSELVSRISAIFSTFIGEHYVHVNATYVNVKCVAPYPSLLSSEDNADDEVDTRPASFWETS

Structure (SMILES) | IC50 [nM]
COc1cc2nccc(Oc3ccc(NC(=O)NC(=O)c4ccccc4Cl)c(F)c3)c2cc1OC [Example 107, 1-(2-chloro-benzoyl)-3-[4-(6,7-dimethoxy-quinolin-4-yloxy)-2-fluorophenyl]urea] | 345
COc1cc2nccc(Oc3ccc(NC(=S)NC(=O)Cc4c(F)ccc(F)c4F)c(F)c3)c2cc1OC [Example 205, 1-[4-(6,7-dimethoxyquinolin-4-yloxy)-2-fluorophenyl]-3-[2-(2,3,6-trifluorophenyl)acetyl]-thiourea] | 265
COc1cc2c(Oc3ccc(NC(=O)NC(=O)Cc4ccccc4)cc3F)ccnc2cc1OCCN1CCCCC1 [Example 13, 1-{3-fluoro-4-[6-methoxy-7-(2-piperidin-1-yl-ethoxy)quinolin-4-yloxy]phenyl}-3-phenylacetylurea] | 141
COc1cc2nccc(Oc3ccc(NC(=O)NC(=O)Nc4ccc(C)cn4)cc3)c2cc1OC [Example 235, N-(5-methyl-2-pyridyl)-({[4-(6,7-dimethoxy-quinolin-4-yloxy)anilino]carbonyl}amino)methanamide] | 215
COc1cc2nccc(Oc3ccc(NC(=O)CC(=O)Nc4ccc(Cl)cc4)cc3)c2cc1OC [Example 219, N-(4-chlorophenyl)-N′-[4-(6,7-dimethoxy-quinolin-4-yloxy)phenyl]malonamide] | 736
COc1cc2nccc(Oc3ccc(NC(=O)NC(=O)Cc4ccc(F)cc4F)c(F)c3)c2cc1OC [Example 33, 1-[2-(2,4-difluorophenyl)acetyl]-3-[4-(6,7-dimethoxyquinolin-4-yloxy)-2-fluorophenyl]urea] | 61.8
COC(=O)c1cccc(NC(=O)CC(=O)Nc2ccc(Oc3ccnc4cc(OC)c(OC)cc34)cc2)c1 [Example 213, methyl 3-{2-[4-(6,7-dimethoxyquinolin-4-yloxy)phenylcarbamoyl]acetylamino}benzoate] | 2430
COc1cc2nccc(Oc3ccc(NC(=O)NC(=O)Nc4ccnn4C)cc3)c2cc1OC [Example 237, N-(1-methyl-1H-5-pyrazolyl)-({[4-(6,7-dimethoxyquinolin-4-yloxy)anilino]carbonyl}amino)-methanamide] | 1470
COc1cc2nccc(Oc3ccc(NC(=O)CC(=O)NC(C)c4ccccc4)cc3)c2cc1OC (centres unmarked) [Example 214, N-[4-(6,7-dimethoxyquinolin-4-yloxy)phenyl]-N′-(1-phenylethyl)malonamide] | 2530
COc1cc2c(Oc3ccc(NC(=S)NC(=O)Cc4ccc(Cl)cc4)cc3F)ccnc2cc1OCC(O)CN1CCCC1 (centres unmarked) [Example 328, 1-[2-(4-Chloro-phenyl)-acetyl]-3-{3-fluoro-4-[7-(2-hydroxy-3-pyrrolidin-1-yl-propoxy)-6-methoxy-quinolin-4-yloxy]-phenyl}-thiourea] | 43.2
COc1ccccc1NC(=O)CC(=O)Nc1ccc(Oc2ccnc3cc(OC)c(OC)cc23)cc1 [Example 211, N-[4-(6,7-dimethoxyquinolin-4-yloxy)phenyl]-N′-(2-methoxyphenyl)malonamide] | 252
COc1cc2nccc(Oc3ccc(NC(=O)NC(=O)Cc4ccc(C)cc4)c(F)c3)c2cc1OC [Example 124, 1-[4-(6,7-dimethoxyquinolin-4-yloxy)-2-fluorophenyl]-3-(2-p-tolylacetyl)urea] | 264
COc1cc2c(Oc3ccc(NC(=O)NC(=O)Cc4ccc(F)cc4)cc3F)ccnc2cc1OCCN1CCCCC1 [Example 48, 1-{3-fluoro-4-[6-methoxy-7-(2-piperidin-1-yl-ethoxy)quinolin-4-yloxy]phenyl}-3-[2-(4-fluorophenyl)-acetyl]urea] | 224
COc1cc2c(Oc3ccc(NC(=S)NC(=O)Cc4ccc(Cl)cc4)cc3F)ccnc2cc1OCC(O)CN1CCCCC1 (centres unmarked) [Example 327, 1-[2-(4-Chloro-phenyl)-acetyl]-3-{3-fluoro-4-[7-(2-hydroxy-3-piperidin-1-yl-propoxy)-6-methoxy-quinolin-4-yloxy]-phenyl}-thiourea] | 798
COc1cc2nccc(Oc3ccc(NC(=O)CC(=O)NCc4ccccc4)cc3)c2cc1OC [Example 215, N-benzyl-N′-[4-(6,7-dimethoxyquinolin-4-yloxy)phenyl]malonamide] | 1980
CCCCOCC(=O)NC(=S)Nc1ccc(Oc2ccnc3cc(OC)c(OC)cc23)c(Cl)c1 [Example 193, 1-(2-butoxyacetyl)-3-[3-chloro-4-(6,7-dimethoxyquinolin-4-yloxy)phenyl]thiourea] | 444
COc1cc2nccc(Oc3ccc(NC(=O)NC(=O)Cc4ccccc4F)cc3)c2cc1OC [Example 25, 1-[4-(6,7-dimethoxyquinolin-4-yloxy)phenyl]-3-[2-(2-fluorophenyl)acetyl]urea] | 140
COc1cc2c(Oc3ccc(NC(=S)NC(=O)Cc4ccc(C)cc4)cc3F)ccnc2cc1OCC(O)CN1CCOCC1 (centres unmarked) [Example 335] | 23.6
COc1cc2nccc(Oc3ccc(NC(=O)CC(=O)NC4CCCCC4)cc3)c2cc1OC [Example 217, N-cyclohexyl-N′-[4-(6,7-dimethoxyquinolin-4-yloxy)phenyl]malonamide] | 333
COc1cc2nccc(Oc3ccc(NC(=O)NC(=O)Cc4ccc(F)c(F)c4)c(F)c3)c2cc1OC [Example 140, 1-[2-(3,4-difluorophenyl)acetyl]-3-[4-(6,7-dimethoxyquinolin-4-yloxy)-2-fluorophenyl]urea] | 229
COc1cc2nccc(Oc3ccc(NC(=O)NC(=O)Nc4ccccc4F)cc3)c2cc1OC [Example 252, N-(2-fluorophenyl)-({[4-(6,7-dimethoxy-quinolin-4-yloxy)anilino]carbonyl}amino)methanamide] | 301
COc1cc2nccc(Oc3ccc(NC(=O)C(C)C(=O)NC4CCCCC4)cc3)c2cc1OC (centres unmarked) [Example 226, N-cyclohexyl-N′-[4-(6,7-dimethoxyquinolin-4-yloxy)phenyl]-2-methylmalonamide] | 3230

Next, values leading:

IC50 [nM] | Structure (SMILES)
252 | COc1cc2nccc(Oc3ccc(NC(=S)NC(=O)Cc4cccc(Cl)c4)cc3Cl)c2cc1OC [Example 174, 1-[3-chloro-4-(6,7-dimethoxyquinolin-4-yloxy)phenyl]-3-[2-(3-chlorophenyl)acetyl]thiourea]
66.3 | COc1cc2nccc(Oc3ccc(NC(=S)NC(=O)Cc4ccccc4)c(Cl)c3)c2cc1OC [Example 65, 1-[2-chloro-4-(6,7-dimethoxyquinolin-4-yloxy)-phenyl]-3-phenylacetylthiourea]
232 | COc1cc2nccc(Oc3ccc(NC(=S)NC(=O)Cc4ccc(Cl)cc4)cc3Cl)c2cc1OC [Example 189, 1-[3-chloro-4-(6,7-dimethoxyquinolin-4-yloxy)phenyl]-3-[2-(4-chlorophenyl)acetyl]thiourea]
29.9 | COc1cc2nccc(Oc3ccc(NC(=S)NC(=O)Cc4ccc(F)cc4)cc3)c2cc1OC [Example 71, 1-[4-(6,7-dimethoxyquinolin-4-yloxy)phenyl]-3-[2-(4-fluorophenyl)acetyl]thiourea]
40 | COc1cc2nccc(Oc3ccc(NC(=S)NC(=O)Cc4ccccc4C)cc3F)c2cc1OC [Example 84, 1-[4-(6,7-dimethoxyquinolin-4-yloxy)-3-fluorophenyl]-3-(2-o-tolylacetyl)thiourea]
256 | COc1cc2nccc(Oc3ccc(NC(=S)NC(=O)Cc4ccccc4F)cc3)c2cc1OC [Example 151, 1-[4-(6,7-dimethoxyquinolin-4-yloxy)phenyl]-3-[2-(2-fluorophenyl)acetyl]thiourea]
28.1 | COc1cc2nccc(Oc3ccc(NC(=S)NC(=O)Cc4ccc(F)cc4)cc3Cl)c2cc1OC [Example 73, 1-[3-chloro-4-(6,7-dimethoxyquinolin-4-yloxy)-phenyl]-3-[2-(4-fluorophenyl)acetyl]thiourea]
982 | COc1cc2nccc(Oc3ccc(NC(=S)NC(=O)Cc4ccccc4[N+](=O)[O-])cc3)c2cc1OC [Example 155, 1-[4-(6,7-dimethoxyquinolin-4-yloxy)phenyl]-3-[2-(2-nitrophenyl)acetyl]thiourea]
182 | COc1cc2nccc(Oc3ccc(NC(=S)NC(=O)Cc4cccc(F)c4)c(F)c3)c2cc1OC [Example 74, 1-[4-(6,7-dimethoxyquinolin-4-yloxy)-2-fluoro-phenyl]-3-[2-(3-fluorophenyl)acetyl]thiourea]
202 | COc1cc2nccc(Oc3cc(C)c(NC(=S)NC(=O)Cc4ccccc4)cc3C)c2cc1OC [Example 163, 1-[4-(6,7-dimethoxyquinolin-4-yloxy)-2,5-dimethylphenyl]-3-phenylacetylthiourea]
294 | COc1cc2nccc(Oc3ccc(NC(=S)NC(=O)Cc4ccc(F)c(F)c4)c(F)c3)c2cc1OC [Example 198, 1-[2-(3,4-difluorophenyl)acetyl]-3-[4-(6,7-dimethoxyquinolin-4-yloxy)-2-fluorophenyl]thiourea]
33.6 | CCN(CC)CCOc1cc2nccc(Oc3ccc(NC(=S)NC(=O)Cc4ccccc4)cc3F)c2cc1OC [Example 272, 1-{4-[7-(2-Diethylamine-ethoxy)-6-methoxy-quinolin-4-yloxy]-3-fluoro-phenyl}-3-phenylacetyl-thiourea]
27 | COc1cc2nccc(Oc3ccc(NC(=S)NC(=O)Cc4ccccc4)c(F)c3)c2cc1OC [Example 58, 1-[4-(6,7-dimethoxyquinolin-4-yloxy)-2-fluorophenyl]-3-phenylacetylthiourea]
226 | COc1cc2nccc(Oc3ccc(NC(=S)NC(=O)Cc4ccccc4C(F)(F)F)cc3F)c2cc1OC [Example 201, 1-[4-(6,7-dimethoxyquinolin-4-yloxy)-3-fluorophenyl]-3-[2-(2-trifluoromethylphenyl)acetyl]-thiourea]
23 | CCN(CC)CCOc1cc2nccc(Oc3ccc(NC(=S)NC(=O)Cc4ccc(F)cc4)cc3F)c2cc1OC [Example 275, 1-{4-[7-(2-Diethylamino-ethoxy)-6-methoxy-quinolin-4-yloxy]-3-fluoro-phenyl}-3-[2-(4-fluoro-phenyl)-acetyl]-thiourea]
32.8 | COc1cc2nccc(Oc3ccc(NC(=O)NC(=O)Cc4ccccc4)c(F)c3)c2cc1OC [Example 16, 1-[4-(6,7-dimethoxyquinolin-4-yloxy)-2-fluoro-phenyl]-3-phenylacetylurea]
